Legend:
[1] = tested on: skin inflammatory response to an energy injury; assay: Topical application to heat-caused first or second degree burns (FIG. 1, burn cases in general); type: in vivo, human
From the text: An energy injury is a sunburn, heat burn, or other radiation energy burn including thermal heat energy burns. […] As noted by the prior art discussed above, L-lactic acid was originally intended to facilitate reversing the signs/appearance of aging in cosmetic surgery patients by loosening and subsequent exfoliation of outer layer dead skin cells using L-Lactic Acid as the active ingredient. L-Lactic Acid is the only stereoisomer configuration of lactic acid that is active in cellular metabolism. In its original application, the L-Lactic Acid formulation very effectively results in increased epidermal cell turnover and stimulation of new collagen deposition in the deeper dermal skin layer of uninjured skin. However, the prior art teaches that acid irritates and burns the skin and teaches that concentrated acid should never be applied to an injury or burn area. […] In this manner, the action of 15% or less L-Lactic Acid with pH of less than 3.0 applied topically to an acute severe second degree burn appears to safely halt and then reverse the dermal inflammatory response cascade of events. Thus, capillary swelling decreases, leaked vascular fluid returns into the capillaries and/or lymph channels, and redness disappears as a result of fewer red blood cells in the area.
The preferred and proven application of the product should occur as soon as possible after the energy injury during the inflammatory response. However, the application is effective at any time during the skin inflammatory response. This initial application, if possible, should be within one hour for ANY first or second degree burn including a deep second degree burn such as a sunburn, touching a 400 degree oven pan. radiation therapy, or laser resurfacing treatment. This topical application has a phenomenal effect on both the visible appearance and experienced physical symptoms of the burn. […] When looking at FIGS. 1 and 2 one may see that this initial application 100 time affects how much of the untreated skin inflammatory response 60 and damage that must be overcome with the faster the application 100, the better the treated effect 150. […] The patient schedule, effectiveness of the application 100, and the increased concentration resulting in an increased patient's skin irritation become an issue with shortening the intervals for reapplication.

[2] = tested on: skin inflammatory response to an energy injury; assay: Effectiveness of the burn treatment as a function of pH and concentration of the lactic acid
From the text: In contrast to the normally low concentrations found in skin, the preferred product formulation is based on 10% weight/weight concentration of L-Lactic Acid, with pH of 2.34 that is compared to normal skin lactate levels that are around <3 mmol/L and skin pH between 6.8-7.0 pH.

Q: How did the “skin inflammatory response compared against the untreated norm” value ([1]; FIG. 1, applied within four hours of the initial burn) turn out when `C[C@H](O)C(=O)O` [L-Lactic Acid, L-lactic acid] was run?
A: immediate and significant impediment to the skin inflammatory response

Q: And the “exfoliation or blister occurrence” value ([1]; FIG. 1 example, applied within four hours of the initial burn)?
A: no apparent exfoliation or blister occurrence

Q: And the “blister formation after treatment” value ([1]; any burn cases)?
A: no blister formation has occurred

Q: What about the “applications at different times after the energy injury” value ([1]; applied 1 hour, 2 hours, 4 hours, and 6 hours after the energy injury) of the same compound?
A: successfully tested

Q: What about the “effectiveness for the treatment” value ([2]; 2.5 pH, 2.4 pH) of the same compound?
A: increased effectiveness

Q: And the “effectiveness for the treatment” value ([2]; 2.8 pH)?
A: further increasing effectiveness

Q: What about the “effectiveness for the treatment” value ([2]; 3.0 pH) of the same compound?
A: increasing effectiveness compared to the 3.5 pH

Q: What about the “effectiveness for the treatment” value ([2]; 3.5 pH) of the same compound?
A: increasing effectiveness over the 4.0 pH

Q: What about the “effectiveness for the treatment” value ([2]; 4.0 pH) of the same compound?
A: slightly effective

Q: What about the “effectiveness for the treatment” value ([2]; above a 4.0 pH) of the same compound?
A: ineffective

Q: What about the “skin effect of high concentrations” value ([2]; concentrations over 30%) of the same compound?
A: incite exfoliation

Source: patent US20160038446A1, “METHOD FOR IMPEDING SKIN INFLAMMATORY RESPONSE TO AN ENERGY INJURY” (priority 2014, published 2016)
